What was measured:
[1] = test system: neurones of the substantia nigra; experiment: Acute MPTP model (including apoptosis), FluoroJade staining of degenerating neurones; assay type: in vivo; conditions: mouse; for No. of degenerating neurones: FluoroJade staining
Protocol: (§1) The 2-aminotetralins according to the invention, in particular rotigotine, thereby display a neuroprotective effect in a mouse model of Parkinson's disease: Following the acute administration of MPTP, which causes Parkinson's syndrome in both humans and monkeys, the number of the degenerating neurones in the acute phase was measured on the one hand (Table 1) and the functional integrity of the striatum in the sub-acute phase was ascertained on the other by determining the density of the dopamine transporter in the terminal nerve endings (FIGS. 1 and 2).
For the purpose of intoxication, 80 mg/kg of the neurotoxin 1-methyl-4-phenyl-1,2,3,6-tetrahydro-pyridine (MPTP) were administered to mice (in doses of 20 mg/kg at two-hour intervals), which led to the degeneration of approximately 50 to 60% of the neurones of the substantia nigra. Approximately 16 hours beforehand, rotigotine was administered in doses of 0.3, 1 or 3 mg/kg respectively, as the so-called “slow-release formulation”. Diffusion and absorption latencies led to rotigotine then being optimally available when MPTP was administered. The animals were killed after 24 hours and their brains fixed. The brain sections were stained with FluoroJade to identify degenerating cells. The immunohistochemical marking of tyrosine-hydroxylase helped to identify dopaminergic neurones.

[2] = test system: dopamine transporters in the striatum; experiment: Sub-acute MPTP model, dopamine transporter density in the striatum ([125I]PE2I binding); assay type: in vivo, mice
Protocol: Groups 1 to 7 were treated as follows: Group 1: untreated control group; Group 2: control group treated with a vehicle solution for rotigotine and MPTP; Group 3: MPTP treatment; Group 4: MPTP treatment plus rotigotine 0.3 mg/kg; Group 5: MPTP treatment plus rotigotine 1.0 mg/kg; Group 6: MPTP treatment plus rotigotine 3.0 mg/kg; Group 7: treatment solely with rotigotine (3.0 mg/kg).
as §1
For the purpose of intoxication, 80 mg/kg of the neurotoxin 1-methyl-4-phenyl-1,2,3,6-tetrahydro-pyridine (MPTP) were administered to mice (in doses of 20 mg/kg at two-hour intervals, groups 3 to 6 in FIGS. 1 and 2), which led to the degeneration of approximately 50 to 60% of the neurones of the substantia nigra (maximum degeneration in group 3 in FIGS. 1 and 2). […]

[3] = test system: monkeys (macaques) injected with MPTP; experiment: Progressive MPTP primate model of morbus Parkinson (pilot study); assay type: in vivo
Protocol: In the model used, which reflects the progressive course of morbus Parkinson in primates, monkeys (macaques) were injected with subliminal toxic doses of MPTP for several days. Parkinson's symptoms developed in the model over a period of approximately 2 weeks. As soon as a certain level of damage had been reached, rotigotine was injected daily in a formulation that produced a continuous plasma level over 24 hours. The MPTP injections were stopped as soon as the motor activity had been reduced to a certain extent (approximately 5 days later). The behavior of the animals was assessed on a daily basis. […] A group of animals was killed at the end of both the rotigotine administration and the clearance phase, and the condition of the basal ganglia was histologically and biochemically examined.

[4] = test system: patients with Parkinson's disease; conditions: cited from earlier work

CCCN(CCc1cccs1)C1CCc2c(O)cccc2C1 (single isomer, unassigned; (-)) [rotigotine, (−)-5,6,7,8-tetrahydro-6-[propyl[2-(2-thienyl)ethyl]amino]-1-naphthol]
No. of degenerating neurones ([1]; MPTP intoxication + rotigotine 0.3 mg/kg): 66.7 | No. of degenerating neurones ([1]; MPTP intoxication + rotigotine 1.0 mg/kg): 76.8 | No. of degenerating neurones ([1]; MPTP intoxication + rotigotine 3.0 mg/kg): 34.9 | No. of degenerating neurones ([1]; MPTP-vehicle + rotigotine 3.0 mg/kg (no MPTP)): 3.8 | Staining of tyrosine hydroxylase (dopaminergic neurones) ([1]; acute MPTP model, 24 hours, treated vs untreated animals): did not display any differences between the treated and untreated animals | Reduction of the number of degenerating neurones following application of rotigotine ([1]; acute MPTP model, versus MPTP intoxication): approximately 50% | Number of degenerating neurones in the mesencephalon ([1]; acute phase after MPTP): reduced | Survival of the neurones and their nerve endings (dopamine transporter density in the striatum) ([2]; mice, MPTP 80 mg/kg, rotigotine 0.3, 1 or 3 mg/kg daily for 7 days, slow-release formulation): improved the survival of the neurones and their nerve endings depending on the dosage | Dopaminergic innervation of the striatum (density of the dopamine transporter) ([2]; mouse, sub-acute phase after MPTP): almost completely maintained or restored | Density of the nerve endings in the striatum ([3]; compared to untreated animals): significantly increased | Motor activity of the animals ([3]; daily rotigotine injections, during treatment and in the following clearance phase): clearly improved | Content of pre-pro-enkephalin (basal ganglia) ([3]; following treatment and the clearance phase): showed a tendency towards normalisation | Dyskinesias ([4]; patients with pronounced dyskinesias, Metman et al. (2001)): improved | UPDRS (Unified Parkinson's Disease Rating Scale) score ([4]; transdermal administration, patients with Parkinson's disease, WO 02/089777): improvement

Source: patent publication US8283376B2, “Use of substituted 2-aminotetralins for preventive treatment of parkinson's disease” (UCB Pharma GmbH, priority 2003, dated 2012)
